We go through four molecules from US8729109B2, “3-(4-(5-phenyl-1 ,2,4-oxadiazol-3-yl)phenoxy)propan-2-ol derivatives as sphingosine-1phosphate receptors modulators” (Allergan, Inc., priority 2011, dated 2014).

For orientation: EC50 means the concentration at which the effect is half-maximal.

One experiment concerns the target T1, human S1P1 receptor (Homo sapiens, UniProt P21453).
T1 construct: expressed in transfected cells; membranes used
The experiment is described as follows: GTP γ35S binding assay, S1P1 activity. Type of experiment: biochemical. Conditions: membranes of cells stably expressing S1P1 receptor, agonist potency. On the procedure: Compounds were synthesized and tested for S1P1 activity using the GTP γ^35S binding assay. These compounds may be assessed for their ability to activate or block activation of the human S1P1 receptor in cells stably expressing the S1P1 receptor.
GTP γ^35S binding was measured in the medium containing (mM) HEPES 25, pH 7.4, MgCl2 10, NaCl 100, dithitothreitol 0.5, digitonin 0.003%, 0.2 nM GTP γ^35S, and 5 μg membrane protein in a volume of 150 μl. Test compounds were included in the concentration range from 0.08 to 5,000 nM unless indicated otherwise. Membranes were incubated with 100 μM 5′-adenylylimmidodiphosphate for 30 min, and subsequently with 10 μM GDP for 10 min on ice. Drug solutions and membrane were mixed, and then reactions were initiated by adding GTP γ^35S and continued for 30 min at 25° C. Reaction mixtures were filtered over Whatman GF/B filters under vacuum, and washed three times with 3 mL of ice-cold buffer (HEPES 25, pH 7.4, MgCl2 10 and NaCl 100). Filters were dried and mixed with scintillant, and counted for ^35S activity using a β-counter. Agonist-induced GTP γ^35S binding was obtained by subtracting that in the absence of agonist. Binding data were analyzed using a non-linear regression method. In case of antagonist assay, the reaction mixture contained 10 nM […] in the presence of test antagonist at concentrations ranging from 0.08 to 5000 nM.
Background: GTPγS is a poorly hydrolysed GTP analogue; its binding reports G protein activation.

The subject of another experiment is lymphocytes in the blood. Put plainly: Lymphopenia assay in mice. The format is in vivo. Conditions: female C57BL6 mice, 10 mg/Kg subcutaneously, after 96 h of drug application (FIG. 1). The protocol: Lymphopenia Assay in Mice
Compound 1, 5-{3-[3-chloro-4-(2,3-dihydroxypropoxy)phenyl]-1,2,4-oxadiazol-5-yl}-2-isopropoxybenzonitrile, was prepared in a solution containing 3% (w/v) 2-hydroxy propyl β-cyclodextrin (HPBCD) and 1% DMSO to a final concentration of 1 mg/ml, and subcutaneously injected to female C57BL6 mice (CHARLES RIVERS) weighing 20-25 g at the dose of 10 mg/Kg. Blood samples were obtained by puncturing the submandibular skin with a Goldenrod animal lancet at 24, 48, 72, and 96 hrs post drug application. Blood was collected into microvettes (SARSTEDT) containing EDTA tripotassium salt. Lymphocytes in blood samples were counted using a HEMAVET Multispecies Hematology System, HEMAVET HV950FS (Drew Scientific Inc.). (Hale, J. et al Bioorg. & Med. Chem. Lett. 14 (2004) 3351).The results are presented in FIG. 1: the number of lymphocytes in the blood was reduced by Compound 1 after 96 h of drug application.

T1 sequence (P21453 whole entry): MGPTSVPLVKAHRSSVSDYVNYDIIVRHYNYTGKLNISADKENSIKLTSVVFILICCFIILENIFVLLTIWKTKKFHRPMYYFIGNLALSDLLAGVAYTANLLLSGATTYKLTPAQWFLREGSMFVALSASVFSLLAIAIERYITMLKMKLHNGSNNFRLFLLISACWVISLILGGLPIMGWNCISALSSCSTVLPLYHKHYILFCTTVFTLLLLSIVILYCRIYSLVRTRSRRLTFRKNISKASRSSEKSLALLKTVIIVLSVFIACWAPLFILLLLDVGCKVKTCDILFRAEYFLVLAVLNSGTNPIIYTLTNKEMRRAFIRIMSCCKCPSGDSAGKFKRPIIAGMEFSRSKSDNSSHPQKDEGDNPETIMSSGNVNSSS

For `CC(C)Oc1ccc(-c2nc(-c3ccc(OCC(O)COP(=O)(O)O)c(Cl)c3)no2)cc1C#N` (centres unmarked) [Compound 4, 3-{2-chloro-4-[5-(3-cyano-4-isopropoxyphenyl)-1,2,4-oxadiazol-3-yl]phenoxy}-2-hydroxypropyl dihydrogen phosphate], the EC50 at human S1P1 receptor was determined as 4.58 µM.
Regarding `COP(=O)(O)OCC(O)COc1ccc(-c2noc(-c3ccc(OC(C)C)c(C#N)c3)n2)cc1Cl` (centres unmarked) [Compound 3, 3-{2-chloro-4-[5-(3-cyano-4-isopropoxyphenyl)-1,2,4-oxadiazol-3-yl]phenoxy}-2-hydroxypropyl methyl hydrogen phosphate], it took 0.0204 µM to reach a half-maximal effect at human S1P1 receptor (EC50).
Same read-out and setting: with `COP(=O)(OC)OCC(O)COc1ccc(-c2noc(-c3ccc(OC(C)C)c(C#N)c3)n2)cc1Cl` (centres unmarked) [Compound 2, 3-{2-chloro-4-[5-(3-cyano-4-isopropoxyphenyl)-1,2,4-oxadiazol-3-yl]phenoxy}-2-hydroxypropyl dimethyl phosphate] the figure was 0.00288 µM.
In turn, `CC(C)Oc1ccc(-c2nc(-c3ccc(OCC(O)CO)c(Cl)c3)no2)cc1C#N` (centres unmarked) [Compound 1, 5-{3-[3-chloro-4-(2,3-dihydroxypropoxy)phenyl]-1,2,4-oxadiazol-5-yl}-2-isopropoxybenzonitrile] registered an EC50 at human S1P1 receptor of 0.0103 µM. Further, the “number of lymphocytes in the blood” value in the experiment on lymphocytes in the blood is given as “reduced”.
